Assay results from US20100317605A1, “THE USE OF EPIMEDIUM FLAVONES AND EFFECTIVE COMPONENTS THEREOF FOR THE PREPARATION OF MEDICAMENTS OF PROMOTING PROLIFERATIONS AND DIFFERENTIATIONS OF NERVE CELLS” (XUANWU HOSPITAL OF CAPITAL MEDICAL UNIVERSITY, priority 2007, published 2010).

Assays:
[1] = test system: primary cultured neural stem cells (NSC); test: Survival and proliferation of primary cultured neural stem cells (neurospheres) in medium without growth factors; type: cell-based, SD rats
Method: The brains were taken from neonatal 1 day SD rats under a sterile condition, and the hippocampi were isolated and placed in culture dish containing a small amount of high glucose DMEM/F12; the meninges and blood vessels were divested, and the tissue was cut into small pieces, added with 5 ml cell culture medium, lightly blown and beaten into cell suspension with flame polished Pasteur sucker, and filtered by 400 screen mesh. The ratio of living cells was counted by trypan-blue staining. After the counting, the cells were placed into a 25 ml culture flask at a density of 2×10^6 cells/ml. Basal culture medium DMEM/F12 (1:1), cofactor B27(2%) and growth factor EGF (20 ng/ml)+bFGF (10 ng)/ml) were needed for conventional culture of NSC, and the cells grew as floating spheres in the culture medium. In order to observe the effect of different concentrations of epimedium flavanoide and its effective ingredient […] on primary cultured NSC, basal culture medium DMEM/F12 (1:1) and B27(2%) were used without growth factor, and epimedium flavanoide or […] final concentration of 10, 50, 100, 200, 400 μg/ml was added respectively. Cultures were maintained at 37° C. in a humidified atmosphere of 95% air/5% CO2. The growth state of the cells was observed under inverted microscope, and the diameter of the neurospheres was measured by micro ruler. The identification of neural stem cells: the neurospheres were taken, the culture medium containing growth factor EGF and bFGF were removed, DMEM/F12 containing 10% FBS was added, and inoculated in 24-well culture plates covered with polylysine. After 16 hours of culture, nestin and doublecortin (DCX) immunocytochemical staining was performed.

neural stem cells = test: Differentiation of neural stem cells (second generation neurospheres) in medium without FBS; type: cell-based, SD rats
Method: The second generation of neurospheres in culture was taken, and the culture medium containing growth factors in the culture flask was removed. The neurospheres were randomly divided into two groups: (1) fetal bovine serum (FBS) control group: the culture medium was DMEM/F12+1% FBS; (2) epimedium flavanoide treatment group: the culture medium was DMEM/F12 (without FBS) added with epimedium flavanoide at a final concentration of 10, 50, 100, 200 and 400 μg/ml, respectively; (3) […] treatment group: the culture medium was DMEM/F12 (without FBS) added with […] final concentration of 10, 50, 100, 200 and 400 μg/ml, respectively. The three groups of the cells were inoculated in 24-well culture plates covered with polylysine. After 7 days of culture, the morphology of the cells was observed under inverted microscope, and fluorescent immunostaining was performed and photographed.

[2] = without fetal bovine serum, 7 days, vs FBS group, P<0.01 (FIG. 4)
[3] = without fetal bovine serum, 7 days, vs FBS group, P<0.01 (FIG. 5)

COc1ccc(-c2oc3c(CC=C(C)C)c(OC4OC(CO)C(O)C(O)C4O)cc(O)c3c(=O)c2OC2OC(C)C(O)C(O)C2O)cc1 (centres unmarked) [icarrin, 3-((6-deoxymannopyranosyl)oxo)-7-(pyranoglucosyloxo)-5-hydroxy-2-(4-methoxyphenyl)-8-(3-methyl-2-butenyl)-4H-1-benzopyran-4-one]
growth state of neurospheres ([1]; 100 μg/ml, DMEM/F12 without growth factors, 7 days (FIG. 1D)): floating neurospheres were observed
growth state and volume of neurospheres ([1]; 100 μg/ml, DMEM/F12 without growth factors, 28 days (FIG. 1E)): the neurospheres still grew well, and their volume further increased
formation of floating neurospheres ([1]; 10-400 μg/ml, DMEM/F12 without growth factors, 7 days): many floating neurospheres were formed
growth and volume of neurospheres ([1]; 100-200 μg/ml groups, without growth factors, 28 days): still grew well, but also became significantly larger in volume
diameter of neurospheres ([1]; without serum and growth factors, vs control group at 7, 14, 28 days, P<0.01 (FIG. 2)): increased gradually as the incubation time prolonged
morphology of differentiated cells (neural stem cells; 50 μg/ml, DMEM/F12 without FBS, 7 days (FIG. 3D)): the neurospheres grew well and almost completely adhered, and differentiated well
growth, adhesion and differentiation of neurospheres (neural stem cells; 50, 100 μg/ml, without FBS, 7 days): the neurospheres grew well, almost completely adhered, and differentiated well
distance of cell migration (neural stem cells; [2]): farther
length of processes of differentiated cells grown from the neurospheres (neural stem cells; [2]): longer
length of the axons of neurons (neural stem cells; [3]): longer
number of NF-200 positive cells (mature neurons) (neural stem cells; [3]): increased
